Measurements: PubChem BioAssay (NCI)
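Test compounds were applied to cells in 96-well plates for 48 hours at 5 doses. Definition used: TGI = concentration required for complete inhibition of growth.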

Tests used:
Assay in all cases: NCI tumour cell line growth inhibition, 48 h
SF-295 CNS = tested on: SF-295 CNS
SF-539 CNS = tested on: SF-539 CNS
SK-MEL-28 melanoma = tested on: SK-MEL-28 melanoma
KM12 colon = tested on: KM12 colon
MOLT-4 leukemia = tested on: MOLT-4 leukemia
HOP-62 NSCLC = tested on: HOP-62 NSCLC
M19-MEL melanoma = tested on: M19-MEL melanoma
NCI-H522 lung = tested on: NCI-H522 lung
OVCAR-8 ovarian = tested on: OVCAR-8 ovarian
MCF7 breast = tested on: MCF7 breast
DMS 114 small cell lung = tested on: DMS 114 small cell lung
NCI-H23 lung = tested on: NCI-H23 lung
CCRF-CEM leukemia = tested on: CCRF-CEM leukemia
OVCAR-3 ovarian = tested on: OVCAR-3 ovarian
SNB-19 CNS = tested on: SNB-19 CNS
K-562 leukemia = tested on: K-562 leukemia
UACC-257 melanoma = tested on: UACC-257 melanoma
DLD-1 colon = tested on: DLD-1 colon
MALME-3M melanoma = tested on: MALME-3M melanoma
OVCAR-4 ovarian = tested on: OVCAR-4 ovarian
SF-268 CNS = tested on: SF-268 CNS
NCI-H226 lung = tested on: NCI-H226 lung
HT29 colon = tested on: HT29 colon
HOP-18 NSCLC = tested on: HOP-18 NSCLC
HCT-15 colon = tested on: HCT-15 colon
UO-31 renal = tested on: UO-31 renal
P388 leukemia = tested on: P388 leukemia
DMS 273 small cell lung = tested on: DMS 273 small cell lung
XF 498 CNS = tested on: XF 498 CNS
NCI/ADR-RES ovarian = tested on: NCI/ADR-RES ovarian
SN12K1 renal = tested on: SN12K1 renal
U251 CNS = tested on: U251 CNS
SN12C renal = tested on: SN12C renal
SK-OV-3 ovarian = tested on: SK-OV-3 ovarian
SW-620 colon = tested on: SW-620 colon
SNB-75 CNS = tested on: SNB-75 CNS
UACC-62 melanoma = tested on: UACC-62 melanoma
SK-MEL-5 melanoma = tested on: SK-MEL-5 melanoma
RPMI-8226 leukemia = tested on: RPMI-8226 leukemia
LOX IMVI melanoma = tested on: LOX IMVI melanoma
EKVX NSCLC = tested on: EKVX NSCLC
NCI-H460 lung = tested on: NCI-H460 lung
OVCAR-5 ovarian = tested on: OVCAR-5 ovarian
SK-MEL-2 melanoma = tested on: SK-MEL-2 melanoma
IGROV1 ovarian = tested on: IGROV1 ovarian
A498 renal = tested on: A498 renal
SNB-78 CNS = tested on: SNB-78 CNS
HL-60(TB) leukemia = tested on: HL-60(TB) leukemia
A549 NSCLC = tested on: A549 NSCLC
RXF 393 renal = tested on: RXF 393 renal
KM20L2 colon = tested on: KM20L2 colon
HCC-2998 colon = tested on: HCC-2998 colon
COLO 205 colon = tested on: COLO 205 colon
HOP-92 NSCLC = tested on: HOP-92 NSCLC
HCT-116 colon = tested on: HCT-116 colon

## CC(=O)Nc1ccc(/C=C/c2ccc(NC(=O)Nc3ccc(/C=C/c4ccc(NC(C)=O)cc4S(=O)(=O)O)c(S(=O)(=O)O)c3)cc2S(=O)(=O)O)c(S(=O)(=O)O)c1
SF-295 CNS
  TGI: > 100 µM
SF-539 CNS
  TGI: > 100 µM
SK-MEL-28 melanoma
  TGI: > 100 µM
KM12 colon
  TGI: > 100 µM
MOLT-4 leukemia
  TGI: > 100 µM
HOP-62 NSCLC
  TGI: > 100 µM
M19-MEL melanoma
  TGI: > 100 µM
NCI-H522 lung
  TGI: > 100 µM
OVCAR-8 ovarian
  TGI: > 100 µM
MCF7 breast
  TGI: > 100 µM
DMS 114 small cell lung
  TGI: > 100 µM
NCI-H23 lung
  TGI: > 100 µM
CCRF-CEM leukemia
  TGI: > 100 µM
OVCAR-3 ovarian
  TGI: > 100 µM
SNB-19 CNS
  TGI: > 100 µM
K-562 leukemia
  TGI: > 100 µM
UACC-257 melanoma
  TGI: > 100 µM
DLD-1 colon
  TGI: > 100 µM
MALME-3M melanoma
  TGI: > 100 µM
OVCAR-4 ovarian
  TGI: > 100 µM
SF-268 CNS
  TGI: > 100 µM
NCI-H226 lung
  TGI: > 100 µM
HT29 colon
  TGI: > 100 µM
HOP-18 NSCLC
  TGI: > 100 µM
HCT-15 colon
  TGI: > 100 µM
UO-31 renal
  TGI: > 100 µM
P388 leukemia
  TGI: > 100 µM
DMS 273 small cell lung
  TGI: > 100 µM
XF 498 CNS
  TGI: > 100 µM
NCI/ADR-RES ovarian
  TGI: > 100 µM
SN12K1 renal
  TGI: > 100 µM
U251 CNS
  TGI: > 100 µM
SN12C renal
  TGI: > 100 µM
SK-OV-3 ovarian
  TGI: > 100 µM
SW-620 colon
  TGI: > 100 µM
SNB-75 CNS
  TGI: > 100 µM
UACC-62 melanoma
  TGI: > 100 µM
SK-MEL-5 melanoma
  TGI: > 100 µM
RPMI-8226 leukemia
  TGI: > 100 µM
LOX IMVI melanoma
  TGI: > 100 µM
EKVX NSCLC
  TGI: > 100 µM
NCI-H460 lung
  TGI: > 100 µM
OVCAR-5 ovarian
  TGI: > 100 µM
SK-MEL-2 melanoma
  TGI: > 100 µM
IGROV1 ovarian
  TGI: > 100 µM
A498 renal
  TGI: > 100 µM
SNB-78 CNS
  TGI: > 100 µM
HL-60(TB) leukemia
  TGI: > 100 µM
A549 NSCLC
  TGI: > 100 µM
RXF 393 renal
  TGI: > 100 µM
KM20L2 colon
  TGI: > 100 µM
HCC-2998 colon
  TGI: > 100 µM
COLO 205 colon
  TGI: > 100 µM
HOP-92 NSCLC
  TGI: > 75.6 µM
HCT-116 colon
  TGI: > 100 µM
